Values joined by “and” are separate entries in the source; they are usually repeats but may differ in a detail not shown here. Equal values may be shown once. “Also recorded” adds a separate entry of the source.
Assays:
[1] = Photoreactivity ROS assay (OECD TG 495): singlet oxygen (SO) and superoxide anion (SA) generation
Experimental: The photoreactivity assay was conducted to detect the generation of oxygen singlet (^1O2; SO) and superoxide anion (O2 ^−•; SA), according to OECD TG n° 495, as described in [Freitas et al. (2015)]. […] SO generation was detected by spectrophotometric measurement of p-nitrosodimethylaniline (RNO) bleaching, followed by decreased absorbance of RNO at 440 nm and SA generation was detected by observing the reduction of nitroblue tetrazolium (NBT) at 560 nm. The assay was performed in triplicate in three independent experiments.
According to the ROS Assay protocol ([OECD, 2019b]), the compound’s photoreactivity is classified according to Table 2.

3T3 BALB/c fibroblasts = experiment: 3T3 Neutral red uptake phototoxicity test (3T3 NRU PT, OECD TG 432); type: cell-based; conditions: UVA 9 J/cm^2
Experimental: The 3t3 Neutral red uptake phototoxicity (3t3 NRU PT) test was performed in accordance to OECD TG n° 432 ([OECD, 2019a]) using 3T3 BALB/c fibroblasts cells from the Cell Bank of Rio de Janeiro (Rio de Janeiro, Brazil). Fibroblasts were cultured in DMEM supplemented with calf serum (10% v/v), L-glutamine (4 mM) and antibiotic mixture (penicillin, streptomycin and amphotericin B) and incubated at 37°C with 5% CO2. […] The initial concentration for the proportion 5:7:5 was 100 μg/mL for octyl methoxycinnamate, 71.4 μg/mL for avobenzone, and 71.4 μg/mL for avobenzone derivative. These preparations were also diluted in PBS (pH 7.2) to generate samples with 8 different concentrations in a geometric progression (constant factor = 1.47). The highest final concentration of DMSO was 1%. Fibroblasts were seeded at a density of 10^4 cell/well and after 24 h of incubation (5% CO2; 37°C), they were treated with 8 different concentrations of the combinations in the wells in sextuplicate, incubated for 1 h (5% CO2; 37°C) and irradiated with UVA radiation of 9 J/cm^2. […]
Cell viability was measured using the NRU assay with the uptake of the vital dye neutral red into cellular lysosomes. […] After measuring the absorbance of both plates at 540 nm using a microplate reader (SynergyTM 2, Biotek), all data were analyzed by Phototox Software 2.0 (ZEBET, Germany), and the mean photo effect (MPE) was calculated. […]

HaCaT keratinocytes [2] = experiment: Protection against intracellular UVA-induced ROS production (DCFH2-DA probe), HaCaT monolayer; type: cell-based; conditions: UVA 4 J/cm^2
Experimental: To evaluate intracellular ROS production, such as hydroxyl radical, hydrogen peroxide, nitrite and carbonate anion, the probe 2,7-dichlorodihydrofluorescein-diacetate (DCFH2-DA) was used. This probe can undergo hydrolysis by cellular esterases forming the compound DCFH, that can be converted by ROS into the fluorescent compound […] (DCF), measured at the end of the assay ([Kalyanaraman et al., 2012]; [Alam et al., 2013]). The assay was performed under the same conditions (cell type, density and exposure times) as the evaluation of cell viability in immortalized HaCaT keratinocytes.
In detail, 1 × 10^5 cells/well of HaCaT keratinocytes were seeded in 96-well plates and incubated for 24 h at 37°C in a 5% CO2 atmosphere. Then, cells were treated with the avobenzone derivative (31,25–1,000 μg/mL; constant factor: 2) for 1 h and the probe DCFH2-DA (10 µM) for 30 min, followed by 4 J/cm^2 of UVA radiation (Solar simulator Dr. Hönle type SOL-500, Planegg, Germany). This UV waveband was chosen because UVA and visible light are the most relevant radiations for ERO production ([Zastrow et al., 2009]; [Vandersee et al., 2015]). Quercetin (10 μg/mL) and norfloxacin (100 μg/mL) were used as antioxidant and pro-oxidant controls, respectively. The plates were measured using a microplate reader (Synergy™ HT, BioTek, United States) at 485 nm excitation and 528 nm emission. Results are expressed as a percentage of fluorescence in relation to the irradiated control, considered 100%.

HaCaT keratinocytes [3] = experiment: Cell viability of HaCaT keratinocytes (NRU assay); type: cell-based; conditions: SDS 100 μg/mL; for Cytotoxicity for HaCaT cells: avobenzone derivative 31.25–1,000 μg/mL, vs untreated control, 70% threshold ISO 10993-5
Experimental: Prior to the beginning of the assay, cell viability was evaluated to exclude the possibility that the decrease in fluorescence intensity was related to cell death and not to antioxidant activity. HaCaT keratinocytes were cultured in DMEM supplemented with fetal bovine serum (10%), pyruvate (1 mM), penicillin (100 IU/mL) and streptomycin (100 μg/mL), seeded in 96-well plates (1 × 10^5 cells/well) and, 24 h later, treated with avobenzone derivative (31,25–1000 μg/mL; constant factor: 2). Cell viability was determined using the NRU assay ([Gaspar et al., 2013]; [Rangel et al., 2020]) and sodium dodecyl sulfate (SDS) was used as a positive control (100 μg/mL). Untreated cells absorbance at 540 nm were considered 100% of cell viability to calculate the percentage relative to each sample tested.

[4] = test system: reconstructed human skin (RHS); experiment: UVA-induced intracellular ROS production (DCFH2-DA probe) in reconstructed human skin model; type: cell-based; conditions: 200 μg/mL, 25 µL topical 1 h; UVA 10 J/cm^2
Experimental: In-house RHS models were prepared on 24-well cell culture inserts, with primary human fibroblasts and keratinocytes from foreskin (pooled from three donors) after approval by the Ethics Committee in Research Involving Human Beings—School of Pharmaceutical Sciences of Ribeirão Preto—USP (CAAE n° 35685220.3.0000.5403; Protocol CEP/FCFRP n° 551).
Primarily, the dermal compartment consisted of collagen type I (Corning®) and 1.14 × 10^5 normal human fibroblasts that were seeded into the insert (0.4 µm pore size; ThinCert™, Greiner Bio-One GmbH, Frickenhausen—Germany) and incubated overnight. After 20 h, 3.7 × 10^5 normal human keratinocytes were seeded on the top of the dermis mixture and kept submerged in an in-house prepared culture medium for 24 h, so the cells could form a monolayer. […]
Immediately after irradiation and washing with PBS, the tissues were frozen in liquid nitrogen and 8 µm histological sections were obtained in a cryostat. Pictures were taken in an inverted Ti-S microscope (Nikon Instruments Inc., Holland), 488 nm, using 100 ms of exposure intensity and analyzed by ImageJ software ([Rasmussen et al., 2010]; [Marionnet et al., 2014]). Results of fluorescence intensity were normalized to area/pixels and expressed as percent fluorescence compared to untreated irradiated (NT + UV) control, considered 100%.

[5] = Photostability by UV spectrophotometry, solutions in isopropanol; type: physicochemical
Experimental: To assess the photoprotective potential of the new UV filter’s derivative, as well as its combination with avobenzone and octyl methoxycinnamate (Cb), a photostability assay was conducted irradiating all samples at a dose of 27,6 J/cm^2 emitted by a UVA lamp (Philips UVA Actinic BL/10, Netherlands) ([ICH, 1996]; [1998]), while the negative controls were kept in a dark place. The derivative was tested at 100 μg/mL in isopropanol and the combinations Cb (avobenzone, octyl methoxycinnamate and avobenzone derivative) and Cc (avobenzone, octyl methoxycinnamate and ethylhexyl methoxycrylene were tested with a proportion of 4:8:5 (w/w), where the initial concentrations were 100 μg/mL for octyl methoxycinnamate, 50 μg/mL for avobenzone and 62.5 μg/mL for avobenzone derivative/ethylhexyl methoxycrylene. Solutions were analyzed by spectrophotometry in the 280–400 nm range. The results are expressed as a percentage of the area of irradiated samples related to the area of non-irradiated samples according to [Gaspar and Maia Campos (2006)] and [Tavares et al. (2020)].

[6] = design: method as in Santana Reis et al., 2014; conditions: method not stated; ref Santana Reis et al., 2014; cited from earlier work
[7] = DPPH free radical scavenging; conditions: 30 min in the dark, absorbance 517 nm
Experimental: The DPPH free radical scavenging method was conducted according to [Martins et al. (2016)], with modifications. This assay is based on the reduction of the 2,2-diphenyl-1-picrylhydrazyl radical by the antioxidant agent, acting as a hydrogen donor. DPPH is a stable radical due to its molecular conformation, capable of reacting with hydrogen/electron donors, generating its reduced form, accompanied by a reduction in its absorbance (517 nm) ([Kedare and Singh, 2011]). The antioxidant activity is then determined by monitoring the change in the color of the reaction medium, changing from violet to yellow ([Pisoschi and NEgulescu, 2012]).
In a 96-well plate, 100 µL of each sample were diluted in methanol. The concentrations used for avobenzone derivative under study were […] (constant factor: 2) and quercetin was used as a positive control for the test (14–0.109 μg/mL, constant factor: 2). The plate was covered and kept in a dark place for 30 min at room temperature. The absorbance reading was performed at 517 nm using a microplate reader (Synergy™ 2#, Biotek, United States), and the results obtained were used to calculate the inhibition percentages. […] The half maximum inhibitory concentration (IC50-DPPH) was calculated using the linear equation by replacing the value of y with 50 ([Chen et al., 2013]).

[8] = solutions in isopropanol, UVA dose 27,6 J/cm^2, area under curve of irradiated vs non-irradiated (100%)

CC(C(=O)O)c1cccc(C(=O)c2ccccc2)c1 (stereo not drawn) [Ketoprofen, ketoprofen]
SA (superoxide anion generation, NBT reduction at 560 nm) ([1]; avobenzone derivative 1.0 mM, mean ± SEM, n = 3): 116 ± 20.6

N[C@@H](Cc1c[nH]cn1)C(=O)O [L-histidine]
Classification (photoreactivity) [1]: Non-photoreactive

CCn1cc(C(=O)O)c(=O)c2cc(F)c(N3CCNCC3)cc21 [Norfloxacin, reference compound]
MPE (mean photo effect) (3T3 BALB/c fibroblasts; Phototox Software 2.0, one value per independent experiment (two)): 0.568 and 0.520
Increase of ROS production compared to NT + UV (HaCaT keratinocytes [2]; 100 μg/mL): approx. 46%

CCCCCCCCCCCCOS(=O)(=O)[O-].[Na+] [SDS, sodium dodecyl sulfate]
Cell viability (HaCaT keratinocytes [3]; untreated cells = 100%): < 70%
Cytotoxicity for HaCaT cells (HaCaT keratinocytes [3]): cytotoxic

O=C(N/N=C/c1ccc(O)cc1)c1ccc(O)cc1 [avobenzone derivative, (E)-4-hidroxi-N’-(4-hydroxybenzylidene)benzohydrazide]
Reduction in ROS generation compared to NT + UV [4]: 30.7%
Cytotoxicity for HaCaT cells (HaCaT keratinocytes [3]): not cytotoxic
Classification (photoreactivity) [1]: Non-photoreactive
Prediction model (phototoxicity) (3T3 BALB/c fibroblasts; OECD TG 432): non phototoxic; also recorded: Non-Phototoxic
Remaining absorption values after irradiation (%) UVA [5, 8]: 97.7 ± 2.5%
Remaining absorption values after irradiation (%) UVB [5, 8]: 97.8 ± 2.1%
Stability classification ([5]; solutions, irradiated vs non-irradiated pair (p < 0.05 = photounstable)): Photostable
LogP [6]: 1.32 ± 0.52
IC50 (DPPH) [7]: 18.2 ± 10.2 µg/mL
Reduction in ROS generation compared to NT + UV (HaCaT keratinocytes [2]; 125 μg/mL): 37%
Reduction in ROS generation compared to NT + UV (HaCaT keratinocytes [2]; 250 μg/mL): 31%
Reduction in ROS generation compared to NT + UV (HaCaT keratinocytes [2]; 500 μg/mL): 58%
ROS values higher than NT + UV (possible pro-oxidant effect) (HaCaT keratinocytes [2]; 1,000 μg/mL): 5%

O=c1c(O)c(-c2ccc(O)c(O)c2)oc2cc(O)cc(O)c12 [quercetin, reference compound]
IC50 (DPPH) [7]: 2.85 ± 1.03 µg/mL
Decrease of ROS production compared to NT + UV (HaCaT keratinocytes [2]; 10 μg/mL): approx. 67%
